# Laboratory results published in ChEMBL document CHEMBL6087448, “Eradication of Therapy-Resistant Cancer Stem Cells by Novel Telmisartan Derivatives” (J Med Chem, 2025).
# Active and inactive are the calls of the source. The rule behind the calls is not given here.
# Key:
# K-562R [1] = assay: Sensitization of imatinib-induced cytotoxicity against human K562-r cells assessed as reduction in metabolic activity at 10 uM measured after 72 hrs by MTT assay; assay type: functional, cell-based
# COS-7 = assay: Cytotoxicity against African green monkey COS-7 cells assessed as reduction in metabolic activity at 10 uM incubated for 72 hrs by MTT assay; assay type: toxicity, cell-based; settings: chlorocebus aethiops, cos-7, 72 h
# K-562R [2] = assay: Inhibition of side population phenotype in human K562-r cells at 10 uM incubated for 90 mins by DCV staining based flow cytometric analysis relative to control; assay type: functional
# K562-r [3] = assay: Inhibition of STAT5 phosphorylation in human K562-r cells at 4 uM measured after 72 hrs by Western blotting based immunoassay; assay type: cell-based
# K562-r [4] = assay: Effect on STAT5 phosphorylation in human K562-r cells at 4 uM measured after 6 hrs by Western blotting based immunoassay; assay type: cell-based
# K562-r [5] = assay: Inhibition of STAT5 phosphorylation in human K562-r cells at 4 uM measured after 6 hrs in presence of imatinib by Western blotting based immunoassay; assay type: cell-based
# K-562R [6] = assay: Cytotoxicity against human K562-r cells assessed as cell viability at 10 uM incubated for 72 hrs by MTT assay relative to control; assay type: functional; settings: read-out: Activity
# K-562R [7] = assay: Effect on ABCB1 protein expression in human K562-r cells at 4 uM incubated for 72 hrs by Western blotting based immunoassay; assay type: functional, cell-based
# K-562R [8] = assay: Sensitization of imatinib-induced cytotoxicity against human K562-r cells assessed as metabolic activity at 8 uM measured after 72 hrs by MTT assay relative to control; assay type: functional
# K-562R [9] = assay: Sensitization of imatinib-induced cytotoxicity against human K562-r cells assessed as cell viability at 10 uM measured after 72 hrs by MTT assay relative to control; assay type: functional; settings: read-out: Activity
# K-562R [10] = assay: Cytotoxicity against human K562-r cells assessed as reduction in metabolic activity; assay type: functional, cell-based
# K562 = assay: Cytotoxicity against human K562 cells assessed as reduction in metabolic activity at 10 uM measured after 72 hrs by MTT assay; assay type: functional, cell-based
# K-562R [11] = assay: Sensitization of imatinib-induced cytotoxicity against human K562-r cells assessed as reduction in metabolic activity at 0.5 to 6 uM measured after 72 hrs by MTT assay; assay type: functional, cell-based; settings: dose 0.5-6 µM
# A2780/Taxol [12] = assay: Effect on STAT5 protein expression in human Paclitaxel-resistant A2780 cells expressing ABCB1 at 10 uM incubated for 72 hrs by Western blotting based immunoassay; assay type: functional, cell-based
# A2780/Taxol [13] = assay: Inhibition of side population phenotype in human Paclitaxel-resistant A2780 cells expressing ABCB1 at 10 uM incubated for 90 mins by DCV staining based flow cytometric analysis; assay type: functional, cell-based
# MCF7 [14] = assay: Inhibition of side population phenotype in human MCF7 cells expressing ABCG2 at 10 uM incubated for 90 mins by DCV staining based flow cytometric analysis; assay type: functional, cell-based
# A549 [15] = assay: Effect on STAT5 protein expression in human A549 cells at 10 uM incubated for 72 hrs by Western blotting based immunoassay; assay type: functional, cell-based
# [16] = tested on: Paclitaxel-resistant IGROV-1 cell; assay: Inhibition of side population phenotype in human Paclitaxel-resistant IGROV-1 cells expressing ABCB1 at 10 uM incubated for 90 mins by DCV staining based flow cytometric analysis; assay type: functional
# A549 [17] = assay: Inhibition of side population phenotype in human A549 cells expressing ABCC1 at 10 uM incubated for 90 mins by DCV staining based flow cytometric analysis; assay type: functional, cell-based
# [18] = tested on: Paclitaxel-resistant IGROV-1 cell; assay: Inhibition of STAT5 phosphorylation in human Paclitaxel-resistant IGROV-1 cells expressing ABCB1 at 10 uM incubated for 72 hrs by Western blotting based immunoassay
# [19] = tested on: Paclitaxel-resistant IGROV-1 cell; assay: Downregulation of STAT5 protein expression in human Paclitaxel-resistant IGROV-1 cells expressing ABCB1 at 10 uM incubated for 72 hrs by Western blotting based immunoassay; assay type: functional
# A549 [20] = assay: Inhibition of STAT5 phosphorylation in human A549 cells at 10 uM incubated for 72 hrs by Western blotting based immunoassay; assay type: cell-based
# A2780/Taxol [21] = assay: Sensitization of paclitaxel-induced cytotoxicity against human Paclitaxel-resistant A2780 cells assessed as reduction in metabolic activity at 10 uM measured after 72 hrs by MTT assay; assay type: functional, cell-based
# [22] = tested on: Paclitaxel-resistant A2780; assay: Inhibition of STAT5 phosphorylation in human Paclitaxel-resistant A2780 cells expressing ABCB1 at 10 uM incubated for 72 hrs by Western blotting based immunoassay; assay type: cell-based
# [23] = tested on: Docetaxel-resistant PC-3 cell; assay: Inhibition of side population phenotype in human Docetaxel-resistant PC-3 cell expressing ABCB1 at 10 uM incubated for 90 mins by DCV staining based flow cytometric analysis; assay type: functional
# MCF7 [24] = assay: Effect on STAT5 protein expression in human MCF7 cells at 10 uM incubated for 72 hrs by Western blotting based immunoassay; assay type: functional, cell-based
# [25] = tested on: Docetaxel-resistant PC-3 cell; assay: Enhancement of docetaxel-induced anti-metabolic activity against human Docetaxel-resistant PC-3 cell assessed as reduction in metabolic activity at 10 uM measured after 72 hrs by MTT assay; assay type: functional, cell-based
# [26] = tested on: Docetaxel-resistant DU145 cell; assay: Enhancement of docetaxel-induced anti-metabolic activity against human Docetaxel-resistant DU145 cell assessed as reduction in metabolic activity at 10 uM measured after 72 hrs by MTT assay; assay type: functional, cell-based
# [27] = tested on: Paclitaxel-resistant IGROV-1 cell; assay: Enhancement of paclitaxel-induced anti-metabolic activity in human Paclitaxel-resistant IGROV-1 cells assessed as reduction in metabolic activity upto 300 nM measured after 72 hrs by MTT assay; assay type: functional, cell-based
# MCF7 [28] = assay: Inhibition of STAT5 phosphorylation in human MCF7 cells at 10 uM incubated for 72 hrs by Western blotting based immunoassay; assay type: cell-based
# [29] = tested on: Docetaxel-resistant DU145 cell; assay: Inhibition of side population phenotype in human Docetaxel-resistant DU145 cell expressing ABCB1 at 10 uM incubated for 90 mins by DCV staining based flow cytometric analysis; assay type: functional
# K562-r [30] = assay: Effect on STAT5 phosphorylation in human K562-r cells at 4 uM measured after 6 hrs in presence of imatinib by Western blotting based immunoassay; assay type: cell-based
# K-562R [31] = assay: Inhibition of side population phenotype in human K562-r cells at 0.1 uM incubated for 90 mins by DCV staining based flow cytometric analysis; assay type: functional, cell-based
# K562-r [32] = assay: Effect on STAT5 phosphorylation in human K562-r cells at 4 uM measured after 72 hrs by Western blotting based immunoassay; assay type: cell-based
structure (smiles),measurement,setting,value
CCCc1nc2ccccc2n1Cc1ccc(-c2ccc(C(=O)O)cc2)cc1,Activity,K-562R [1],inactive
same,Activity,COS-7,Non-toxic
CCCc1nc2ccccc2n1Cc1cccc(C(=O)O)c1,Activity,K-562R [1],inactive
same,Activity,COS-7,Non-toxic
CCCc1nc2ccccc2n1Cc1ccc(-c2ccccc2C(N)=O)cc1,Activity,COS-7,Non-toxic
CCCc1nc2ccccc2n1Cc1ccc(-c2ccc(C(=O)OC)cc2)cc1,inhibition,K-562R [2],Active
same,inhibition,K562-r [3],Active
same,Activity,K562-r [4],inactive
same,Activity,COS-7,Non-toxic
same,inhibition,K562-r [5],Active
same,viability at 10 µM,K-562R [6],~75%
same,Activity,K-562R [7],inactive
CCCc1nc2ccccc2n1Cc1cccc(C(=O)OC)c1,Activity,K-562R [8],44%
same,inhibition,K-562R [2],inactive
same,Activity,COS-7,Non-toxic
same,viability at 10 µM,K-562R [9],34%
COc1ccc(CCN(C)CCCC(C#N)(c2ccc(OC)c(OC)c2)C(C)C)cc1OC (configuration not stated),Activity,K-562R [10],inactive
same,Activity,K562,inactive
same,Activity,K-562R [11],Active
CCCc1nc2ccccc2n1Cc1ccc(-c2ccccc2C(=O)O)cc1,Activity,K-562R [1],inactive
same,Activity,COS-7,Non-toxic
CCCc1nc2ccccc2n1Cc1ccccc1C(N)=O,Activity,K-562R [1],inactive
same,Activity,COS-7,Non-toxic
same,viability at 10 µM,K-562R [6],~75%
CCCc1nc2ccccc2n1Cc1ccc(C(=O)OC)cc1,Activity,K-562R [8],44%
same,inhibition,K-562R [2],inactive
same,Activity,COS-7,Non-toxic
same,viability at 10 µM,K-562R [9],34%
CCCc1nc2ccccc2n1Cc1ccc(C(=O)O)cc1,Activity,K-562R [1],inactive
same,Activity,COS-7,Non-toxic
CCCc1nc2ccccc2n1Cc1ccc(-c2ccc(C(N)=O)cc2)cc1,Activity,A2780/Taxol [12],inactive
same,inhibition,A2780/Taxol [13],Active
same,inhibition,MCF7 [14],inactive
same,Activity,A549 [15],inactive
same,inhibition,K-562R [2],Active
same,inhibition,[16],Active
same,inhibition,A549 [17],inactive
same,inhibition,[18],Active
same,inhibition,K562-r [3],Active
same,Activity,[19],Active
same,inhibition,A549 [20],Active
same,Activity,K562-r [4],inactive
same,Activity,A2780/Taxol [21],Active
same,inhibition,[22],Active
same,inhibition,[23],Active
same,Activity,MCF7 [24],inactive
same,Activity,COS-7,Non-toxic
same,inhibition,K562-r [5],Active
same,Activity,[25],Active
same,Activity,[26],Active
same,Activity,[27],Active
same,inhibition,MCF7 [28],Active
same,Activity,K-562R [7],inactive
same,inhibition,[29],Active
CCCc1nc2ccccc2n1Cc1ccccc1C(=O)O,Activity,K-562R [1],inactive
same,Activity,COS-7,Non-toxic
CCCc1nc2ccccc2n1Cc1ccc(C(N)=O)cc1,Activity,K-562R [1],inactive
same,Activity,COS-7,Non-toxic
CCCc1nc2ccccc2n1Cc1cccc(C(N)=O)c1,Activity,K-562R [1],inactive
same,Activity,COS-7,Non-toxic
C/C=C/C[C@@H](C)C(=O)[C@H]1C(=O)N[C@@H](C(C)C)C(=O)N(C)CC(=O)N(C)[C@@H](CC(C)C)C(=O)N[C@@H](C(C)C)C(=O)N(C)[C@@H](CC(C)C)C(=O)N[C@@H](C)C(=O)N[C@H](C)C(=O)N(C)[C@@H](CC(C)C)C(=O)N(C)[C@@H](CC(C)C)C(=O)N(C)[C@@H](C(C)C)C(=O)N1C,Activity,K-562R [10],inactive
same,Activity,K562,inactive
same,Activity,K-562R [11],Active
CCCc1nc2ccccc2n1Cc1ccc(-c2cccc(C(=O)O)c2)cc1,Activity,K-562R [1],inactive
same,Activity,COS-7,Non-toxic
CCCc1nc2ccccc2n1Cc1ccc(-c2cccc(C(N)=O)c2)cc1,Activity,A2780/Taxol [12],inactive
same,inhibition,A2780/Taxol [13],Active
same,inhibition,MCF7 [14],inactive
same,Activity,A549 [15],inactive
same,inhibition,K-562R [2],Active
same,inhibition,[16],Active
same,inhibition,A549 [17],inactive
same,inhibition,[18],Active
same,inhibition,K562-r [3],Active; Lesser Effect Observed
same,Activity,[19],Active
same,inhibition,A549 [20],Active
same,Activity,K562-r [4],inactive
same,Activity,A2780/Taxol [21],Active
same,inhibition,[22],Active
same,inhibition,[23],Active
same,Activity,MCF7 [24],inactive
same,Activity,COS-7,Non-toxic
same,inhibition,K562-r [5],Active
same,Activity,[25],Active
same,Activity,[26],Active
same,Activity,[27],Active
same,inhibition,MCF7 [28],Active
same,Activity,K-562R [7],inactive
same,inhibition,[29],Active
CCCc1nc2ccccc2n1Cc1ccc(-c2cccc(C(=O)OC)c2)cc1,Activity,COS-7,Non-toxic
same,viability at 10 µM,K-562R [9],34%
COc1cc2c(cc1OC)CN(CCc1ccc(NC(=O)c3cccc4c(=O)c5cccc(OC)c5[nH]c34)cc1)CC2,Activity,K562-r [30],inactive
same,inhibition,K-562R [31],Active
same,Activity,K-562R [10],inactive
same,Activity,K562-r [4],inactive
same,Activity,K562,inactive
same,Activity,K562-r [32],inactive
same,Activity,K-562R [11],Active
CCCc1nc2ccccc2n1Cc1ccccc1C(=O)OC,Activity,K562-r [30],inactive
same,Activity,K-562R [8],44%
same,inhibition,K-562R [2],inactive
same,inhibition,K562-r [3],Active; Lesser Effect Observed
same,Activity,K562-r [4],inactive
same,Activity,COS-7,Non-toxic
same,Activity,K-562R [7],inactive
same,viability at 10 µM,K-562R [9],34%
CCCc1nc2ccccc2n1Cc1ccc(-c2ccccc2C(=O)OC)cc1,Activity,K562-r [30],inactive
same,inhibition,K-562R [2],Active
same,inhibition,K562-r [3],Active; Lesser Effect Observed
same,Activity,K562-r [4],inactive
same,Activity,COS-7,Non-toxic
same,Activity,K-562R [7],inactive
